Laboratory results reported in article PMC6302903, “Protein and Chemical Determinants of BL-1249 Action and Selectivity for K2P Channels” (ACS Chemical Neuroscience, 2018).

Molecular target: T1, K2P1.1(TWIK-1) (Mus musculus, UniProt O08581)
T1 construct: expressed in transfected cells; host or cells: Xenopus laevis oocytes injected with mRNA made from pGEMHE/pMO
Assay: TEVC of K2P1.1(TWIK-1) in Xenopus oocytes
Assay type: cell-based
Conditions: concentrations up to the solubility limit (∼80 μM)
Protocol: BL-1249 activates K2P2.1(TREK-1)[18],[40] and K2P10.1(TREK-2),[7] but its effects on other K2P channels have not been characterized. […] In order to test if the original 10 μM assay had missed BL-1249 effects in other K2P channels, we tested concentrations of BL-1249 up to the solubility limit (∼80 μM) against the other K2P subfamily representatives. […]
Xenopus laevis oocytes were harvested in accordance with UCSF IACUC protocol AN129690 and digested in calcium-free ND-96 (96 mM NaCl, 2 mM KCl, 3.8 mM MgCl2) immediately following harvest, as previously described.[6],[10] […] Defolliculated stage V–VI oocytes were injected with 0.2–6.0 ng of mRNA in 50 nL, and currents were recorded 24–48 h after injection. mRNA was synthesized from plasmid DNA using mMessage mMachine Kit (T7 promoter, Ambion, Life Technologies) and purified using RNEasy Kit (Qiagen). […] Once stabilized basal currents were recorded, compounds were perfused at various concentrations in standard ND96 and currents were allowed to increase to stabilization before recording final current. Fold activation upon compound application is expressed as I/I0 (0 mV), derived from the current at 0 mV in the presence of compound divided by the basal current at 0 mV in standard ND96 without compound. Data were analyzed and plotted using Graphpad Prism Version 5 (GraphPad Software, San Diego California USA, www.graphpad.com). […]

T1 sequence (O08581 whole entry): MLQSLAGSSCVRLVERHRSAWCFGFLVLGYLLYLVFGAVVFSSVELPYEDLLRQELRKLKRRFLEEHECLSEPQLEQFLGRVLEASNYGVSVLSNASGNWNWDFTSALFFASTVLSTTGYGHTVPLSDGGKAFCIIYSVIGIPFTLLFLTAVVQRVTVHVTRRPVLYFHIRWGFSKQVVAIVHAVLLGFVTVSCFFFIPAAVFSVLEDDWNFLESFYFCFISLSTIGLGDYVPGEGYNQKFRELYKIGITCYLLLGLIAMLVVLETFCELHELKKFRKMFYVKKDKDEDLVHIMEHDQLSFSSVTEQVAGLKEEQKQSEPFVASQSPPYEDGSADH

- activation of K2P1.1(TWIK-1): failed to find evidence for activation
Compound: c1ccc(-c2nnn[nH]2)c(Nc2cccc3c2CCCC3)c1 [BL-1249, (5,6,7,8-tetrahydro-naphthalen-1-yl)-[2-(1H-tetrazol-5-yl)-phenyl]-amine]
